Read-outs that look alike come from different tables or passages of the source.
Tests used:
human ERα = molecular target: T1, human ERα (Homo sapiens, UniProt P03372); assay: Competitive steroid binding assay, ERα; conditions: for inhibition at 0.003 µM: E4 3 nM; for inhibition at 0.01 µM: E4 10 nM; for inhibition at 0.03 µM: E4 0.03 μM; for inhibition at 0.1 µM: E4 0.1 μM; for inhibition at 0.3 µM: E4 0.3 μM
T1 sequence (P03372 1-595): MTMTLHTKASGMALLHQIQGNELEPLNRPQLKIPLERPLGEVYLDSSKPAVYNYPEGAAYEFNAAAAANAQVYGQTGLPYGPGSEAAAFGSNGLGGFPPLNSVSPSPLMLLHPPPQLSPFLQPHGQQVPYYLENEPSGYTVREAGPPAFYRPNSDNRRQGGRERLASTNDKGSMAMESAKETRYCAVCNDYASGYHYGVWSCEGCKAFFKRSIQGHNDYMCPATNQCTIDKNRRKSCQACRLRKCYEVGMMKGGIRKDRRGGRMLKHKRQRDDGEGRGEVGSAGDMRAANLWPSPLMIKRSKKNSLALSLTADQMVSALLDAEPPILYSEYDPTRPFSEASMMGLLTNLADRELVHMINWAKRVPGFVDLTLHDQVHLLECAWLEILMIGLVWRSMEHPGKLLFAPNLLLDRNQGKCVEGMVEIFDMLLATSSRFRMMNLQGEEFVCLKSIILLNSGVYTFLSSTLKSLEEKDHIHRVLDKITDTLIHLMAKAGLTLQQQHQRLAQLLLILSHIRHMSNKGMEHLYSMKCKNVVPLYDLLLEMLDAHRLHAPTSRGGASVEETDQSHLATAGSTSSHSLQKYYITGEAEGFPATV

human ERβ = molecular target: T2, human ERβ (Homo sapiens, UniProt Q92731); assay: Competitive steroid binding assay, ERβ; conditions: read-out: Percent inhibition of specific binding in ERβ steroid binding assay; for inhibition at 0.03 µM: E4 0.03 μM; for inhibition at 0.1 µM: E4 0.1 μM; for inhibition at 0.3 µM: E4 0.3 μM; for inhibition at 1 µM: E4 1 μM
T2 construct: made in house; host or cells: Sf9 insect cells
T2 sequence (Q92731 whole entry): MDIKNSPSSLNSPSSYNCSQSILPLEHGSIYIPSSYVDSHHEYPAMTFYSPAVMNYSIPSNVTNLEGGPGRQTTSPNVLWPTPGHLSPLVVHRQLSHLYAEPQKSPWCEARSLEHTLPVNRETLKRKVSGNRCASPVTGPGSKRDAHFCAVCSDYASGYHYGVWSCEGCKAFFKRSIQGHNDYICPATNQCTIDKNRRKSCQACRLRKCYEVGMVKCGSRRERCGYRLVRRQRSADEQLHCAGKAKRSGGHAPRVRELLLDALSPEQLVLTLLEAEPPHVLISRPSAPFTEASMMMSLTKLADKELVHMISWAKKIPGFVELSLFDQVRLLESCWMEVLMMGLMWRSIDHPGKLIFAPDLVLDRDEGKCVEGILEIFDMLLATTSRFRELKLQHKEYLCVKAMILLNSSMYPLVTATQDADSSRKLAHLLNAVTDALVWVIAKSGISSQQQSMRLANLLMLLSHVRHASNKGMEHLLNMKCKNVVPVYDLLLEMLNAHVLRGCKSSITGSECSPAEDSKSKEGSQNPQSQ

[1] = molecular target: T3, human sex Hormone Binding Globulin (SHBG) (Homo sapiens, UniProt P04278); assay: Competitive steroid-binding assay, SHBG; conditions: [3H]DHT or [3H]estradiol as labeled ligands
T3 construct: made in house; host or cells: transgenic mouse (purified from serum)
T3 sequence (P04278 30-402): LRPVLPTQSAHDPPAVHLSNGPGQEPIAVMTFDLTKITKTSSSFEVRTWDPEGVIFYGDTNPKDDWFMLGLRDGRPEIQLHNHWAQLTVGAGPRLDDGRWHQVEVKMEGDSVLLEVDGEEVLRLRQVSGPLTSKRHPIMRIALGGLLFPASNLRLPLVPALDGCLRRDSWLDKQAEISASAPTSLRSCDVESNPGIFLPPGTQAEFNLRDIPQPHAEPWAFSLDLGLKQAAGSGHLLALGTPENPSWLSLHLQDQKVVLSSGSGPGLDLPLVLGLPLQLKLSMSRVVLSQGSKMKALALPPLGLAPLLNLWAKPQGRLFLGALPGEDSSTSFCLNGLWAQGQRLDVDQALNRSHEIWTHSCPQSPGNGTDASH
Procedure: Human SHBG was treated for 30 min at room temperature with a dextran-coated charcoal (DCC) suspension in phosphate buffered saline (PBS) to remove any steroid ligand. After centrifugation (2,000×g for 10 min) to sediment the DCC, the supernatant containing the human SHBG was diluted in PBS to a concentration of 1 nM based on its steroid binding capacity.
The average amounts of [^3H]labeled ligands bound to SHBG at each concentration of competitor (B) were expressed as a percentage of the average amounts of [^3H]labeled ligands bound to SHBG in the absence of competitor (B0), and were plotted against the concentration of competitor in each assay tube.

postmenopausal women = assay: Clinical study of libido in postmenopausal women; type: in vivo, human; conditions: 4 months
Procedure: In a baseline cycle, coitus frequency and sexual satisfaction (female orgasm) are recorded.
Each participant receives blinded medication in 2 differently labeled bottles, filled with tablets. One bottle comprises tablets that contain 2 mg estetrol, whilst the other bottle contains identical placebo tablets. The participants are allowed to choose from which bottle to take a tablet, but are instructed not to use more than 1 tablet per 24 hours and not more than 2 tablets a week. The total duration of the study is 4 months.

[2] = test system: human breast cancer cells (MCF-7); conditions: MCF-7, long term tissue culture; cited from earlier work
immature rat uterus = conditions: subcutaneously administered, Holinka et al., cited from earlier work
[3] = Test 1, read-out: Percent inhibition of specific binding in ERα steroid binding assay
[4] = Test 2, read-out: Percent inhibition of specific binding in ERα steroid binding assay
[5] = Test 3, read-out: Percent inhibition of specific binding in ERα steroid binding assay

In the case of `C[C@]12CC[C@@H]3c4ccc(O)cc4CC[C@H]3[C@@H]1[C@@H](O)[C@@H](O)[C@@H]2O` [E4, 1,3,5(10)-estratrien-3,15α,16α,17β-tetrol], the inhibition at 0.003 µM (human ERα; [3]) was 26%, the inhibition at 0.003 µM (human ERα; [4]) was 17% and the inhibition at 0.003 µM (human ERα; [5]) was 11%. For the same compound, the inhibition at 0.01 µM (human ERα; [3]) was 43%, the inhibition at 0.01 µM (human ERα; [4]) was 32% and the inhibition at 0.01 µM (human ERα; [5]) was 28%. It also gave an inhibition at 0.03 µM (human ERα; [3]) of 64%, an inhibition at 0.03 µM (human ERα; [4]) of 66% and an inhibition at 0.03 µM (human ERα; [5]) of 63%. The inhibition at 0.1 µM (human ERα; [3]) was 83%, the inhibition at 0.1 µM (human ERα; [4]) was 85% and the inhibition at 0.1 µM (human ERα; [5]) was 86%. The inhibition at 0.3 µM (human ERα; [3]) was 92%, the inhibition at 0.3 µM (human ERα; [4]) was 94% and the inhibition at 0.3 µM (human ERα; [5]) was 101%. The inhibition at 1 µM (human ERα; E4 1 μM, Test 1, read-out: Percent inhibition of specific binding in ERα steroid binding assay) was 98%, the “Relative ERα/ERβ preference” value (human ERα; from Ki values for ERα and ERβ) was 400% and the inhibition at 0.03 µM (human ERβ; Test 1) was 19%. For the same compound, the inhibition at 0.03 µM (human ERβ; Test 2) was 25%, the inhibition at 0.03 µM (human ERβ; Test 3) was 30% and the inhibition at 0.1 µM (human ERβ; Test 1) was 56%. The inhibition at 0.1 µM (human ERβ; Test 2) was 54%, the inhibition at 0.1 µM (human ERβ; Test 3) was 50% and the inhibition at 0.3 µM (human ERβ; Test 1) was 74%. It also gave an inhibition at 0.3 µM (human ERβ; Test 2) of 74%, an inhibition at 0.3 µM (human ERβ; Test 3) of 77% and an inhibition at 1 µM (human ERβ; Test 1) of 87%. The inhibition at 1 µM (human ERβ; Test 2) was 90%, the inhibition at 1 µM (human ERβ; Test 3) was 95% and the “relative binding affinity for human SHBG” value [1] was “does not bind at all”. The “use of estetrol containing tablets versus placebo tablets” value (postmenopausal women; blinded free choice between two bottles) was “significantly more”, the “libido and sexual enjoyment in comparison to baseline” value (postmenopausal women; oral 2 mg tablets on demand, postmenopausal women) was “improved libido and sexual enjoyment” and the undesirable side-effects (postmenopausal women; oral 2 mg tablets, max 2 tablets a week) was “no undesirable side-effects are reported”. The “agonistic potency relative to 17β-estradiol in in vitro cell proliferation” value [2] was 2%, the uterotrophic activity (immature rat uterus; 1979) was “very weak uterotrophic activity” and the uterotrophic activity (immature rat uterus; 1980) was “very weak uterotrophic activity”.

Source: US7723320B2, “Use of estrogen compounds to increase libido in women” (Pantarhei Bioscience B.V., priority 2001, dated 2010)
